Tests used:
Format in all cases: cell-based, human
NCI-H23 = test: NCI-60 one-dose screen (non-small cell lung cancer); settings: 10 µM single dose, 48 h
COLO 205 = test: NCI-60 one-dose screen (colon cancer); settings: 10 µM single dose, 48 h
Method: (§1) The obtained quinolinequinones were submitted to NCI, Bethesda, USA, and, as per standard protocol of NCI, all compounds were evaluated for their antiproliferative activity at single-dose assay (10 µM concentration in DMSO) on a panel of 60 cancer cell lines derived from leukemia, non-small-cell lung, colon, CNS, melanoma, ovarian, renal, prostate, and breast, as per protocol. Tested compounds were added to the microtiter culture plates followed by incubation for 48 h at 37 °C. Sulforhodamine B (SRB), a protein-binding dye, is used for endpoint determination. The percent of the growth of the treated cells was determined in comparison to the untreated control cells and the results of each tested compound were reported. Data from one-dose experiments pertain to the percentage growth at 10 μM [16, 17, 18].

HCC-2998 [1] = test: NCI-60 one-dose screen (colon cancer); settings: 10 µM single dose; for GP (growth percentage): 48 h
Method: as §1

HCT-116 = test: NCI-60 one-dose screen (colon cancer); settings: 10 µM single dose, 48 h
Method: as §1

HCT-15 = test: NCI-60 one-dose screen (colon cancer); settings: 10 µM single dose, 48 h
Method: as §1

HT29 [2] = test: NCI-60 one-dose screen (colon cancer); settings: for GP (growth percentage): 10 µM single dose, 48 h
Method: as §1

KM12 = test: NCI-60 one-dose screen (colon cancer); settings: 10 µM single dose, 48 h
Method: as §1

SW-620 = test: NCI-60 one-dose screen (colon cancer); settings: 10 µM single dose, 48 h
Method: as §1

LOX IMVI = test: NCI-60 one-dose screen (melanoma); settings: 10 µM single dose, 48 h
Method: as §1

MALME-3M = test: NCI-60 one-dose screen (melanoma); settings: 10 µM single dose, 48 h
Method: as §1

MDA-MB-435 [3] = test: NCI-60 one-dose screen (melanoma); settings: 10 µM single dose, 48 h
Method: as §1

SK-MEL-28 = test: NCI-60 one-dose screen (melanoma); settings: 10 µM single dose; for GP (growth percentage): 48 h; for inhibition at 10 µM: Homo sapiens
Method: as §1

SK-MEL-2 = test: NCI-60 one-dose screen (melanoma); settings: 10 µM single dose, 48 h
Method: as §1

SK-MEL-5 = test: NCI-60 one-dose screen (melanoma); settings: 10 µM single dose, 48 h
Method: as §1

UACC-257 = test: NCI-60 one-dose screen (melanoma); settings: 10 µM single dose, 48 h
Method: as §1

UACC-62 = test: NCI-60 one-dose screen (melanoma); settings: 10 µM single dose, 48 h
Method: as §1

786-0 = test: NCI-60 one-dose screen (renal cancer); settings: 10 µM single dose, 48 h
Method: as §1

A498 = test: NCI-60 one-dose screen (renal cancer); settings: 10 µM single dose, 48 h
Method: as §1

ACHN = test: NCI-60 one-dose screen (renal cancer); settings: 10 µM single dose, 48 h
Method: as §1

SN12C = test: NCI-60 one-dose screen (renal cancer); settings: 10 µM single dose, 48 h
Method: as §1

TK-10 = test: NCI-60 one-dose screen (renal cancer); settings: 10 µM single dose, 48 h
Method: as §1

UO-31 [4] = test: NCI-60 one-dose screen (renal cancer); settings: 10 µM single dose, 48 h
Method: as §1

MOLT-4 = test: NCI-60 five-dose assay (leukemia); settings: 48 h, SRB; for GI50 / LC50: Homo sapiens
EKVX = test: NCI-60 five-dose assay (non-small cell lung cancer); settings: 48 h, SRB; for GI50 / CC50: Homo sapiens; for CC50: read-out: LC50 (the source's name)
NCI-H460 = test: as above; settings: 48 h, SRB; for GI50 / CC50: Homo sapiens; for CC50: read-out: LC50 (the source's name)
NCI-H522 = test: as above; settings: 48 h, SRB; for GI50 / LC50: Homo sapiens
HCC-2998 [5] = test: NCI-60 five-dose assay (colon cancer); settings: 48 h, SRB; for GI50 / LC50 (concentration killing 50% of cells): Homo sapiens
HT29 [6] = test: NCI-60 five-dose assay (colon cancer); settings: SRB; for TGI: 48 h; for GI50 / LC50 (concentration killing 50% of cells): Homo sapiens, HT-29, 48 h
SF-268 = test: NCI-60 five-dose assay (CNS cancer); settings: 48 h, SRB; for GI50 / LC50 (concentration killing 50% of cells): Homo sapiens
SF-295 = test: NCI-60 five-dose assay (CNS cancer); settings: 48 h, SRB; for GI50 / LC50 (50% lethal concentration): Homo sapiens
SNB-75 = test: NCI-60 five-dose assay (CNS cancer); settings: 48 h, SRB; for GI50 / LC50 (50% lethal concentration): Homo sapiens
MDA-MB-435 [7] = test: NCI-60 five-dose assay (melanoma); settings: 48 h, SRB; for GI50 / CC50: Homo sapiens; for CC50: read-out: LC50 (the source's name)
IGROV1 = test: NCI-60 five-dose assay (ovarian cancer); settings: SRB; for TGI: 48 h; for GI50 / LC50: Homo sapiens, IGROV-1, 48 h
OVCAR-3 = test: NCI-60 five-dose assay (ovarian cancer); settings: 48 h, SRB; for GI50 / CC50: Homo sapiens; for CC50: read-out: LC50 (the source's name)
NCI/ADR-RES = test: NCI-60 five-dose assay (ovarian cancer); settings: 48 h, SRB; for GI50 / CC50: Homo sapiens; for CC50: read-out: LC50 (the source's name)
SK-OV-3 = test: NCI-60 five-dose assay (ovarian cancer); settings: 48 h, SRB; for GI50 / LC50 (50% net cell kill): Homo sapiens
UO-31 [8] = test: NCI-60 five-dose assay (renal cancer); settings: 48 h, SRB; for GI50 / LC50 (lethal concentration 50%): Homo sapiens
PC-3 = test: NCI-60 five-dose assay (prostate cancer); settings: 48 h, SRB; for GI50 / CC50: Homo sapiens; for CC50: read-out: LC50 (the source's name)
BT-549 = test: NCI-60 five-dose assay (breast cancer); settings: 48 h, SRB; for GI50 / LC50 (concentration giving 50% net cell kill): Homo sapiens

## COc1ccccc1NC1=C(Cl)C(=O)c2nc(C)ccc2C1=O [AQQ1]
NCI-H23
  GP (growth percentage): −8.37%
COLO 205
  GP (growth percentage): 111.34%
HCC-2998 [1]
  GP (growth percentage): 58.90%
HCT-116
  GP (growth percentage): −80.64%
HCT-15
  GP (growth percentage): −47.03%
HT29 [2]
  GP (growth percentage): 75.04%
KM12
  GP (growth percentage): 69.40%
SW-620
  GP (growth percentage): −63.13%
LOX IMVI
  GP (growth percentage): −72.99%
MALME-3M
  GP (growth percentage): −55.92%
MDA-MB-435 [3]
  GP (growth percentage): −85.96%
SK-MEL-28
  GP (growth percentage): 14.13%
  inhibition at 10 µM: 85.9%
SK-MEL-2
  GP (growth percentage): 78.82%
SK-MEL-5
  GP (growth percentage): −93.34%
UACC-257
  GP (growth percentage): −82.67%
UACC-62
  GP (growth percentage): −45.84%
786-0
  GP (growth percentage): 9.17%
A498
  GP (growth percentage): 71.81%
ACHN
  GP (growth percentage): −99.93%
SN12C
  GP (growth percentage): −49.46%
TK-10
  GP (growth percentage): 147.78%
UO-31 [4]
  GP (growth percentage): −65.68%
MOLT-4
  TGI: 8.60 µM
  GI50: 2.27 µM
  LC50: > 100 µM
EKVX
  TGI: 3.05 µM
  GI50: 1.61 µM
  CC50: 5.78 µM
NCI-H460
  TGI: 12 µM
  GI50: 3.22 µM
  CC50: 52.7 µM
NCI-H522
  TGI: 3.36 µM
  GI50: 1.81 µM
  LC50: 6.24 µM
HCC-2998 [5]
  TGI: 3.46 µM
  GI50: 1.87 µM
  LC50 (concentration killing 50% of cells): 6.42 µM
HT29 [6]
  TGI: 4.49 µM
  GI50: 2.13 µM
  LC50 (concentration killing 50% of cells): 9.46 µM
SF-268
  TGI: 3.05 µM
  GI50: 1.53 µM
  LC50 (concentration killing 50% of cells): 6.06 µM
SF-295
  TGI: 3.42 µM
  GI50: 1.85 µM
  LC50 (50% lethal concentration): 6.32 µM
SNB-75
  TGI: 2.84 µM
  GI50: 1.5 µM
  LC50 (50% lethal concentration): 5.39 µM
MDA-MB-435 [7]
  TGI: 3.11 µM
  GI50: 1.7 µM
  CC50: 5.67 µM
IGROV1
  TGI: 2.92 µM
  GI50: 1.46 µM
  LC50: 5.86 µM
OVCAR-3
  TGI: 2.40 µM
  GI50: 1.12 µM
  CC50: 5.15 µM
NCI/ADR-RES
  TGI: 5.16 µM
  GI50: 2.03 µM
  CC50: 34.6 µM
SK-OV-3
  TGI: 27.5 µM
  GI50: 12.6 µM
  LC50 (50% net cell kill): 59.8 µM
UO-31 [8]
  TGI: 2.73 µM
  GI50: 1.42 µM
  LC50 (lethal concentration 50%): 5.26 µM
PC-3
  TGI: 2.58 µM
  GI50: 1.21 µM
  CC50: 5.49 µM
BT-549
  TGI: 3.27 µM
  GI50: 1.72 µM
  LC50 (concentration giving 50% net cell kill): 6.19 µM

## CCOc1ccccc1NC1=C(Cl)C(=O)c2nc(C)ccc2C1=O [AQQ2]
NCI-H23
  GP (growth percentage): −67.81%
COLO 205
  GP (growth percentage): 99.24%
HCC-2998 [1]
  GP (growth percentage): 20.35%
HCC-2998 [1]; Homo sapiens
  inhibition at 10 µM: 79.7%
HCT-116
  GP (growth percentage): −79.44%
HCT-15
  GP (growth percentage): −76.56%
HT29 [2]
  GP (growth percentage): 19.96%
HT29 [2]; Homo sapiens, HT-29, 10 µM single dose
  inhibition at 10 µM: 80%
KM12
  GP (growth percentage): 60.77%
SW-620
  GP (growth percentage): −66.65%
LOX IMVI
  GP (growth percentage): −82.20%
MALME-3M
  GP (growth percentage): −71.39%
MDA-MB-435 [3]
  GP (growth percentage): −85.72%
SK-MEL-28
  GP (growth percentage): 14.55%
  inhibition at 10 µM: 85.5%
SK-MEL-2
  GP (growth percentage): −15.72%
SK-MEL-5
  GP (growth percentage): −97.76%
UACC-257
  GP (growth percentage): −88.33%
UACC-62
  GP (growth percentage): −29.14%
786-0
  GP (growth percentage): −88.18%
A498
  GP (growth percentage): 78.84%
ACHN
  GP (growth percentage): −99.15%
SN12C
  GP (growth percentage): −50.97%
TK-10
  GP (growth percentage): 124.08%
UO-31 [4]
  GP (growth percentage): −92.96%
MOLT-4
  TGI: 8.09 µM
  GI50: 2.03 µM
  LC50: > 100 µM
EKVX
  TGI: 2.98 µM
  GI50: 1.56 µM
  CC50: 5.7 µM
NCI-H460
  TGI: 11.4 µM
  GI50: 3.02 µM
  CC50: 45.4 µM
NCI-H522
  TGI: 3.28 µM
  GI50: 1.74 µM
  LC50: 6.18 µM
HCC-2998 [5]
  TGI: 3.52 µM
  GI50: 1.94 µM
  LC50 (concentration killing 50% of cells): 6.39 µM
HT29 [6]
  TGI: 15.2 µM
  GI50: 3.4 µM
  LC50 (concentration killing 50% of cells): 99.5 µM
SF-268
  TGI: 2.94 µM
  GI50: 1.47 µM
  LC50 (concentration killing 50% of cells): 5.87 µM
SF-295
  TGI: 4.20 µM
  GI50: 2.03 µM
  LC50 (50% lethal concentration): 8.7 µM
SNB-75
  TGI: 3.43 µM
  GI50: 1.63 µM
  LC50 (50% lethal concentration): 7.21 µM
MDA-MB-435 [7]
  TGI: 0.671 µM
  GI50: 0.266 µM
  CC50: 2.45 µM
IGROV1
  TGI: 2.82 µM
  GI50: 1.37 µM
  LC50: 5.84 µM
OVCAR-3
  TGI: 2.03 µM
  GI50: 0.759 µM
  CC50: 4.54 µM
NCI/ADR-RES
  TGI: 5.09 µM
  GI50: 1.89 µM
  CC50: > 100 µM
SK-OV-3
  TGI: 27.1 µM
  GI50: 13.5 µM
  LC50 (50% net cell kill): 54.2 µM
UO-31 [8]
  TGI: 2.71 µM
  GI50: 1.4 µM
  LC50 (lethal concentration 50%): 5.23 µM
PC-3
  TGI: 2.77 µM
  GI50: 1.26 µM
  CC50: 6.11 µM
BT-549
  TGI: 2.88 µM
  GI50: 1.52 µM
  LC50 (concentration giving 50% net cell kill): 5.46 µM
